Data from US4837228A, “Antiinflammatory and antimicrobial compounds and compositions” (The University of Mississippi, priority 1982, dated 1989).

Assays:
[1] = CNS screen in unanesthetized mice; format: in vivo; conditions: doses as large as 800 mg/kg
Candida albicans = experiment: agar well diffusion assay, C. albicans; format: cell-based; conditions: from edge of agar well
Experimental: (§1) Both qualitative and quantitative screens were performed. Qualitative screening was accomplished using the agar well diffusion assay technque while quantitative screening was accomplished by the two-fold (broth) serial dilution method to determine the minimum inhibitory concentration (MIC). Innoculation was accomplished with one loop-full of a 1:10 dilution of the 24-hour-old broth culture, (fungal cultures and M.smegmatis more often required 48 to 72 hours of incubation) of the test organisms in sterile water. Streptomycin sulfate was used as a positive control for antibacterial activity while amphitericin B was used as an antifungal positive control. Organisms utilized in the screens included gram-positive, gram-negative, and acid-fast bacteria as well as different types of fungi. […] An intermediate type activity is seen where R is hydrogen. However, where R is lengthened up to C15 a decrease in activity was noted. Total saturation of the two double bonds in the compounds having a methyl side chain lead, in most cases, to an increase in both antifungal and antibacterial activity.

Escherichia coli = experiment: agar well diffusion assay, E. coli; format: cell-based; conditions: from edge of agar well
Experimental: as §1

[2] = deaths and adverse effects observed in the rat paw edema test; format: in vivo; conditions: 480 mg/kg i.p. plus ethyl urethane i.p.
Experimental: In the Rat Paw Edema Test, the rats utilized were divided into test groups of six to eight animals, weighed and marked so that individual rats could be identified; one hour before testing all rats were given a 700 mg/kg intraperitoneal injection of ethyl urethane in distilled water to render them tractable during testing. A circle was drawn, with a felt-tipped marker, around the hind leg of each rat just above the ankle, and each rat was dosed with a test or control compound by intraperitoneal injection. Negative control groups received the vehicle; while positive control groups received a dose of phenylbutazone (PBZ) as shown in Table II. Test compounds were given at doses of 60, 120, 240 and 480 mg/kg. The positive controls were given at 120 mg/kg and 60 mg/kg. Phenylbutazone was prepared for injection by suspending it in normal saline using Tween 60. The rats were then held in group cages for 30 minutes. The volume of the left hind paw was measured using a mercury displacement pleysmograph. The paw is dipped into the mercury until the mercury touches the line above the ankle. Mercury is then withdrawn until the mercury returns to its original level. The amount of mercury removed is measured in milliliters (ml). The mercury can be measured accurately to 0.01 ml. This left hind paw was then injected with 0.1 ml of a 5% w/v solution of viscous carageenan in normal saline. The injection was given between the metatarsal bones using a 27 gauge needle, and the rats then held in group cages for 3 hours. The volume of the left hind paws was measured again in the pleysmograph. The results were computed in the following manner:
The eighth rat died within 24 hours of injection.

[3] = G.C. analysis of CBC in the hemolysis test solution; format: physicochemical
Experimental: It was apparent that not all the CBC actually went into suspension. In order to determine if some of the CBC adhered to the wall of the glassware a 10 ml aliquot of the 2×10^-4 (solution a) of CBC saturated with NaCl was extracted with CHCl3 and analyzed by G.C. […] The flask was rinshed with ethanol and the washings analyzed by G.C. and found to contain 1.355 mg of CBC. The remaining 1.475 mg (50%) of CBC that could not be accounted for by G.C. analysis may have been lost during the extraction procedure or while adjusting the pH of the test solution. If the 1.475 mg CBC which could not be accounted for was actually in suspension then the maximum final concentration of CBC used in the highest CBC test level would be […] or one half the amount listed in Table 6. […] The actual activity of CBC may have been 3 to 30 times more protective of red cell membranes than an equivalent amount of PBZ.

[4] = tested on: Trichophyton mentagrophytes; experiment: agar well diffusion assay, T. mentagrophytes; format: cell-based; conditions: one entry across 48 hr and 72 hr
Experimental: as §1

## CCCCCc1cc(O)c2c(c1)OC(C)(CCC=C(C)C)C=C2 (centres unmarked) [CBC (I), 2-methyl-2(4'methyl-pent-3'-enyl)-5-hydroxy-7-pentyl chromene]
[1]
  effects on the CNS screen: No significant effects
Candida albicans; 48 hr
  width of inhibition zone: 4.0 mm
Candida albicans; 72 hr
  width of inhibition zone: 4.0 mm
Escherichia coli; 24 hr
  width of inhibition zone: 5. mm
Escherichia coli; 48 hr
  width of inhibition zone: 5. mm
[2]
  deaths: All the animals receiving 480 mg/kg died within 2 days of injection
[3]; 10 ml aliquot, G.C.
  amount of original CBC found in solution: 0.3 mg
[3]; G.C.
  amount of CBC found in ethanol washings of the flask: 1.355 mg
[3]; if unaccounted CBC was in suspension
  maximum final concentration of CBC in the highest CBC test level: 50 µM
[3]; nominal 2×10^-4, saturated with NaCl, extracted with CHCl3, G.C.
  concentration of CBC found in test solution a: 20 µM
[4]
  agar well diffusion result in words: No growth
